Earlier results, collected in patent US12403291B2, “Submucosal bioresorbable drug eluting platform” (Intersect ENT, Inc., priority 2019, dated 2025).

Details: MF per gram of tissue

Question: For `C[C@@H]1C[C@H]2[C@@H]3CCC4=CC(=O)C=C[C@]4(C)[C@@]3(Cl)[C@@H](O)C[C@]2(C)[C@@]1(OC(=O)c1ccco1)C(=O)CCl` [Mometasone furoate, mometasone furoate], which “concentration level of therapeutic effectiveness” value is on record?
Answer: 0.1 µg/g
